According to PubChem BioAssay AID624285 (Broad Institute, 2012):
Active and inactive are the calls of the source.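 The calls were made as follows: active = signal-decreasing dose-response curve whose fitted half-maximal concentration is at or below twice the highest valid tested dose; inconclusive = flat fit at 30 to 70% signal loss, or poor fit; inactive = the rest.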

Assay: cell viability loss after compound exposure – 24 h, luminescence, cherry-picked samples, cytotoxicity control for PDI inhibitor project, dose response (AID 624285)
Conditions: NIH3T3/HeLa viability, CellTiter-Glo ATP luminescence, 24 h; at 35 µM (top of the series)

SMILES	activity change, negative = cytotoxicity
C[C@H](CO)N1C[C@H](C)[C@@H](CN(C)S(=O)(=O)c2ccc(F)cc2)Oc2ccc(NC(=O)Cc3ccccc3)cc2C1=O	-14.6% (inactive)
C[C@@H]1CN([C@@H](C)CO)C(=O)c2cc(NC(=O)Cc3cn(C)c4ccccc34)ccc2O[C@H]1CN(C)S(=O)(=O)c1ccc(F)cc1	3.15% (inactive)
C=CCn1c(SCC(=O)Nc2ccc(N(C)C)cc2)nnc1-c1cccc(C)c1	-10.1% (inactive)
CCN(CC(=O)Nc1ccc2c(c1)OCCO2)C(=O)CC1CCCC1	-11.8% (inactive)
CCc1ccc(NC(=O)Nc2ccncc2)cc1	-3.55% (inactive)
CCCCNC(=O)Nc1ccon1	-6.29% (inactive)
Cn1c(=O)n(CCCOc2ccc(Br)cc2)c2ccccc21	-15.3% (inactive)
C[C@@H]1CN([C@H](C)CO)C(=O)Cc2cc(NC(=O)Nc3ccccc3)ccc2O[C@H]1CN(C)Cc1ccccc1	1.49% (inactive)
CC(=O)c1ccc(N2CCN(C(=O)c3ccc4[nH]c(C)c(C)c4c3)CC2)cc1	-9.89% (inactive)
O=S(=O)(c1cc(F)ccc1F)N1CCN(c2ncccn2)CC1	-15.2% (inactive)
C[C@H]1CN([C@@H](C)CO)C(=O)c2cccc(NS(C)(=O)=O)c2O[C@@H]1CN(C)Cc1ccc(Oc2ccccc2)cc1	-9.08% (inactive)
O=C1CC(C(=O)N2CCc3ccccc32)CN1c1ccc(F)cc1 (stereo not drawn)	-10.7% (inactive)
COc1ccc2c(CC(=O)OCC(=O)N(C)c3c(N)n(Cc4ccccc4)c(=O)[nH]c3=O)coc2c1	-8.77% (inactive)
O=C1CCC(=O)N1c1nc2nc(-c3ccccc3)cc(-c3ccccc3)n2n1	-9.12% (inactive)
COc1cccc(/C=C2\CCCCC2=O)c1	-7.65% (inactive)
COc1ccc(S(=O)(=O)NCC(c2ccc(F)cc2)N2CCOCC2)cc1Br (stereo not drawn)	-10.1% (inactive)
CC1CC(C)CN(C(=O)COC(=O)c2ccc[nH]c2=O)C1 (stereo not drawn)	-4.68% (inactive)
COC(=O)c1cccc(CSc2nnc(C)s2)c1	-12.9% (inactive)
CC(=O)c1ccc(NC(=O)c2cc(Cl)nc3ccccc23)cc1	-8.36% (inactive)
CCOC(=O)C(C)c1n[nH]c(=O)c2ccccc12 (stereo not drawn)	-6.39% (inactive)
CN(C)CCN(C(=O)c1ccc(S(=O)(=O)N2CCc3ccccc32)cc1)c1nc2ccc(F)cc2s1	-13.9% (inactive)
COc1cccc(/C=N/NC(=O)CNC(=O)c2ccc3c(c2)OCCO3)c1O	-12.5% (inactive)
CCOC(=O)c1c(-c2ccccc2)oc2cc(Br)c(O)cc12	-20.5% (inactive)
CC1CCc2sc(C(=O)N/N=C/C3CCCCC3)cc2C1 (stereo not drawn)	-8.35% (inactive)
Cc1ccc2nsnc2c1NC(=O)c1cccnc1Cl	-3.17% (inactive)
CC(C)c1ccc(Nc2nc(CC(=O)O)cs2)cc1	-4.01% (inactive)

SMILES	activity change, negative = cytotoxicity
C=CCNc1ncnc2c1ncn2[C@H]1CN(Cc2cccc3ccccc23)C[C@@H](CO)O1	-8.26% (inactive)
Cc1cccc(C(=O)OCC(=O)N2CCCCCC2)c1O	-10.1% (inactive)
CC(C)(C)OC(=O)N[C@@H](Cc1c[nH]c2ccccc12)c1nnc(SCC(N)=O)o1	-7.43% (inactive)
C[C@@H](CN1C2=NC[C@H](Cc3ccc(O)cc3)N2C[C@H]1Cc1ccc(O)cc1)NC(=O)CCC1CCCCC1	-8.59% (inactive)
O=C1NC(Cc2ccc(O)cc2)c2nc3cc(Cl)ccc3c(=O)n2-c2ncccc21 (stereo not drawn)	-16.3% (inactive)
CCCCC1CCC(c2nc(-c3ccccn3)no2)CC1 (stereo not drawn)	-12.5% (inactive)
CC(=O)OC[C@H]1O[C@@H](Oc2cc(O)cc3oc(-c4ccc(O)cc4)cc(=O)c23)[C@H](O[C@@H]2O[C@@H](C)[C@H](O)[C@@H](O)[C@H]2O)[C@@H](O)[C@@H]1O	-6.13% (inactive)
O=C1NC[C@H](Cc2ccc(O)cc2)N(CC2CCCCC2)C1=O	-25.4% (inactive)
C[C@@H]1CN([C@@H](C)CO)C(=O)c2cccc(NS(C)(=O)=O)c2O[C@@H]1CN(C)Cc1ccc(Oc2ccccc2)cc1	-5.95% (inactive)
OCCC1CN(Cc2cccn2-c2ccccn2)CCN1C1CCCCC1 (stereo not drawn)	-20.5% (inactive)
C[C@@H]1O[C@@H](O[C@H]2[C@H](O)[C@@H](O)[C@H](Oc3c(-c4ccc(O)c(O)c4)oc4cc(O)cc(O)c4c3=O)O[C@@H]2CO)[C@H](O)[C@H](O)[C@H]1O	1.36% (inactive)
O=C(CN1C(=O)NC2(CCCC2)C1=O)Nc1ccc(C(F)(F)F)cc1	-9.2% (inactive)
CC(OC(=O)c1cccc(S(=O)(=O)N(C)C)c1)C(=O)NCC(=O)Nc1ccc(F)c(F)c1F (stereo not drawn)	-4.24% (inactive)
O=C(NCc1ccncc1)Nc1cc(Cl)ccc1Cl	-6.87% (inactive)
Cc1noc(C)c1S(=O)(=O)Nc1ccc2c(c1)CC(=O)N([C@H](C)CO)C[C@@H](C)[C@@H](CN(C)S(=O)(=O)c1ccc(F)cc1)O2	-0.682% (inactive)
CC(=O)NC(Cc1c[nH]c2ccccc12)C(=O)OCC(=O)N1CCN(S(=O)(=O)c2ccc(Cl)cc2)CC1 (stereo not drawn)	-10.5% (inactive)
CC1CCCN(c2cc3c(cc2[N+](=O)[O-])C(=O)N(c2ccccc2)C3=O)C1 (stereo not drawn)	0.75% (inactive)
CCOC(=O)C1(C)CCCN(C(=O)c2cccc(Cl)c2)C1 (stereo not drawn)	-5.27% (inactive)
O=C(NCCCN1CCOCC1)C(Sc1ccccc1)c1ccccc1 (stereo not drawn)	-12% (inactive)
O=C(c1ccc(NS(=O)(=O)c2ccccc2)cc1)N1CCOCC1	-8.07% (inactive)
COc1ccc(C(=O)Nc2ccccc2C(=O)NCc2ccco2)cc1	-14.7% (inactive)
Clc1cccc(OCCCN2CCCC2)c1Cl	-17% (inactive)
CCOC(C(=O)OCCCN(CC)CC)(c1ccccc1)c1ccccc1	-17.8% (inactive)
O=C1NC(Cc2ccc(O)cc2)c2nc3ccccc3c(=O)n2-c2ncccc21 (stereo not drawn)	-7.17% (inactive)
CSc1cccc(NC(=O)CN(C)S(=O)(=O)c2ccc(F)cc2)c1	-8.11% (inactive)
C[C@@H]1O[C@@H](O[C@H]2[C@H](O)[C@@H](O)[C@H](Oc3c(-c4ccc(O)cc4)oc4cc(O)cc(O)c4c3=O)O[C@@H]2CO)[C@H](O)[C@H](O)[C@H]1O	-3.49% (inactive)

SMILES	activity change, negative = cytotoxicity
COCC(=O)N(C)C1(c2nnnn2CCOC(=O)Nc2ccc(Cl)cc2)CCCCC1	-4.92% (inactive)
S=C(NCCN1CCOCC1)Nc1ccc(Br)cc1	-9.3% (inactive)
Cc1cc(C)c2c(=O)n3c(nc2c1)C(Cc1ccc(O)cc1)NC(=O)c1cccnc1-3 (stereo not drawn)	-10.3% (inactive)
Cc1noc(C)c1S(=O)(=O)Nc1ccc2c(c1)CC(=O)N([C@@H](C)CO)C[C@@H](C)[C@H](CN(C)S(=O)(=O)c1ccc(F)cc1)O2	-10.5% (inactive)
CC(Cc1ccccc1Sc1ccccc1O)N(C)C (stereo not drawn)	-11.9% (inactive)
Cc1ccc(SCC(=O)c2sc(-c3ccccc3)nc2C)cc1	-11.9% (inactive)
O=C1[C@@H]2C(Cc3ccc(O)cc3)NC3(C(=O)Nc4ccc(F)cc43)[C@@H]2C(=O)N1c1ccccc1 (stereo partly drawn)	-14% (inactive)
O=C(O)CCc1ccc(-c2cccs2)n1NC(=O)c1ccco1	0.695% (inactive)
CCOc1ccc(C(=O)NCC(=O)OCC(=O)N(C)CC(=O)Nc2ccccc2CC)cc1OCC	-4.27% (inactive)
CCOC(=O)c1c(CN2CCN(Cc3ccccc3)CC2)n(C)c2cc(Br)c(OC)cc12	-17.4% (inactive)
CCc1nc2ccc(C(=O)N(CC)CC(=O)Nc3c(F)cccc3F)cc2nc1CC	-5.83% (inactive)
C=CCn1c(C(CCCC)CC(O)COCC(C)C)n[nH]c1=S (stereo not drawn)	-17.2% (inactive)
Cc1c(O)ccc2c(CN3CCN(Cc4ccccc4)CC3)cc(=O)oc12	-14.2% (inactive)
Cc1nn(CC(=O)NCC2CCCO2)c(C)c1[N+](=O)[O-] (stereo not drawn)	-7.91% (inactive)
Cc1noc(C)c1S(=O)(=O)Nc1ccc2c(c1)CC(=O)N([C@@H](C)CO)C[C@H](C)[C@@H](CN(C)S(=O)(=O)c1ccc(F)cc1)O2	2.55% (inactive)
NC(=O)c1nsc(C(=O)N(CC(=O)NCc2ccc(F)cc2)Cc2ccco2)c1N	-24.6% (inactive)
COCC(=O)N(C)C1(c2nnnn2CCOC(=O)Nc2ccc(Cl)cc2)CCCC1	-5.83% (inactive)
COC(=O)C(Cc1ccc(O)cc1)N1Cc2ccccc2C1=O (stereo not drawn)	-9.13% (inactive)
Cc1nc(C(=O)Nc2cccc(Cl)c2Cl)nn1-c1cc(OC(C)C)c(Cl)cc1Cl	-11.1% (inactive)
Cn1nccc1C(=O)Nc1ccc(S(=O)(=O)N2CCCC2)cc1	-14.9% (inactive)
O=c1c(O[C@H]2O[C@@H](CO)[C@H](O)[C@@H](O)[C@@H]2O)c(-c2ccc(O)cc2)oc2cc(O)cc(O)c12	-3.13% (inactive)
Cc1cc(C)c(C)c(S(=O)(=O)N2CCC(C(=O)N(C)Cc3nc4ccccc4c(=O)[nH]3)CC2)c1C	-5.52% (inactive)
CCCNC(=O)c1cccc(COc2ccccc2OC)c1	-6.42% (inactive)
CN(C1=NC(=O)C(CC(=O)Nc2ccc(Br)cc2)S1)c1ccc(O)cc1 (stereo not drawn)	-8.95% (inactive)
C[C@H](CO)N1C[C@H](C)[C@H](CN(C)Cc2ccc(Oc3ccccc3)cc2)Oc2c(NS(C)(=O)=O)cccc2C1=O	-6.82% (inactive)
COc1ccccc1N1CCN(C(=O)C(=O)N/N=C/c2cccc(O)c2)CC1	-8.29% (inactive)
